Results from patent US8153784B2, “Imaging of enzyme activity” (The General Hospital Corporation, priority 2004, dated 2012).

Key:
[1] = system: plasma proteins; assay: Substrate binding to plasma components (Biospin P-6 elution with 111In tracer); type: in vitro ADME; details: human plasma; eluting experiments
Experimental: The follow experiments were performed to determine the effect of MPO-activated substrate oligomerization with plasma proteins to form larger aggregate. Human plasma was extracted from healthy donors by the use of Polymorphprep (Accurate Chemicals) and centrifugation according to the manufacturer's instructions. Aliquots of 3 mM solution of bis-5-HT-DTPA(Gd) was mixed with aliquots of ^111In-bis-5-HT-DTPA as a tracer, with or without human plasma and with and without MPO/H2O2. […] Radioactivity retained in the columns and the eluted material were counted separately in 1480 Wizard gamma counter (Perkin-Elmer) and the fraction of radioactivity bound to proteins was calculated (n=3 independent experiments).

[2] = biological target: T1, endogenous mouse MPO (Mus musculus, UniProt P11247); assay: LPS/Matrigel experiments, MR imaging; type: in vivo; details: mice; LPS/Matrigel right vs Matrigel left
T1 construct: endogenous in cells; host or cells: inflammatory cells recruited by LPS in C57BL6 male mice (Matrigel site in the thigh, or flank muscle myositis)
T1 sequence (P11247 139-718): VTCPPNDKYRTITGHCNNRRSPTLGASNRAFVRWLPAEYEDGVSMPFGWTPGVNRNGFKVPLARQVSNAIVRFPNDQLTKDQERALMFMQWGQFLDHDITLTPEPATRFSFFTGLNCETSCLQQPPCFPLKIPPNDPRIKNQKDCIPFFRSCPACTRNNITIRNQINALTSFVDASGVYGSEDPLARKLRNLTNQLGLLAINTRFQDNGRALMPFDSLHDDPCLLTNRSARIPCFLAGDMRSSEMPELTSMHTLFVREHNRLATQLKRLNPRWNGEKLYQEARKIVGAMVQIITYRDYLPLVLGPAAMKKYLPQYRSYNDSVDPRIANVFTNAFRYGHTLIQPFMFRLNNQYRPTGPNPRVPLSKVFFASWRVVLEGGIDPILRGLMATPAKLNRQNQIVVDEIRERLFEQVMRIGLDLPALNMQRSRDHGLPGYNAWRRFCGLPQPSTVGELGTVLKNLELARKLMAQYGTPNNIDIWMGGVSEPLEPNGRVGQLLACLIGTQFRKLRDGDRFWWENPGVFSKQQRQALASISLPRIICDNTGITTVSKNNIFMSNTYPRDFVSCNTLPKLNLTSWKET
Experimental: (§1) The MR imaging experiments were performed on a 1.5 T GE Excite scanner and a 4.7 T Bruker Pharmascan scanner. For all MR imaging experiments, precontrast T2-(TR=2000, TE=100, ETL=8, NEX=4, fast spin echo sequence) and T1-weighted images (TR=500, TE=11, NEX=4, spin echo sequence) with fat saturation were initially performed to locate the gels or area of inflammation. The substrates (0.3 mmol/kg) were subsequently injected via the tail vein of the mouse. The mouse was immediately imaged after the injection of the contrast agent using multiple T1-weighted sequences with fat saturation for at least 3 hours.
(§2) Ten-week old C57BL6 male mice were obtained from Jackson Laboratories. A total of 22 mice were used for the study. • 1. MPO/Matrigel imaging experiments: Matrigel™ (Beckton-Dickinson), a […] basement membrane matrix gel was used to immobilize human MPO and glucose oxidase (to supply H2O2 required for detecting MPO oxidative activity, Calbiochem). This was chosen to reflect deposits of human MPO in inflamed tissue in a mouse model. 400 μL of a mixture of Matrigel™ and MEM (Cambrex) was injected slowly into the thighs of each mouse one hour prior to imaging. The right thigh mixture also contained 15 U of MPO and 4 U of glucose oxidase (Calbiochem), while the left thigh mixture contained no enzyme and thus serves as an internal control. […]

[3] = biological target: T1, endogenous mouse MPO; assay: LPS induced myositis, MR imaging at 4.7 T; type: in vivo; details: mice with LPS induced myositis
Experimental: as §1, §2

[4] = biological target: T2, MPO (Homo sapiens, UniProt P05164); assay: Matrigel tissue model containing MPO, MR imaging at 1.5 T; type: biochemical
T2 construct: purchased BioDesign Inc
Experimental: Standard 96-well plates were prepared and imaged on a 1.5 T whole body clinical General Electric Signa MRI scanner utilizing a standard 3 inch surface coil. Inversion recovery sequences were used to measure T1 relaxation and spin echo sequences were utilized to measure T2 relaxation. T2 weighted images were obtained with TR=5000 ms and TE=100 ms with a fast spin echo sequence. T1 weighted images were obtained with spin echo sequences with the following parameters: TR=100, 200, 350, or 500, TE=11. For the Matrigel™ experiments, a relatively T2 weighted image was obtained at TR=300 ms and TE=200 ms. Single-exponential models were used to obtain T1 and T2. The relaxivities were computed by normalizing relaxation rates to the concentration of gadolinium in each sample, obtained by inductive coupled plasma (ICP) analysis performed by Galbraith Laboratories.
We also designed a tissue model system with Matrigel™ to confirm that the substrates can delineate tissues containing MPO. Substrate was added on top of Matrigel™ containing MPO, and imaged at 1.5 T one hour after sample preparation (to ensure substrate conversion), and at 24 hours after sample preparation. Utilizing this tissue model system, and using glucose/glucose oxidase as the hydrogen peroxide generating system (peroxide is released by neutrophils in vivo), we observed an MPO-specific change in the MR signal (see FIG. 8) that is visible on T1-weighted, T2-weighted, and inversion recovery images, at 1 hour after sample preparation. The changes continued to increase over time, and at 24 hours, there is a 30% increase in the longitudinal relaxation rate (5.3 s^−1 to 6.9 s^−1) and a 20% increase in the transverse relaxation rate (8.8 s^−1 to 10.6 s^−1). […] No such change was identified in control systems where MPO was not present (not shown) or glucose oxidase was not present (see the first cell in FIG. 8).

[5] = Matrigel/substrate interface, at 24 hours

T2 sequence (P05164 279-745 limits assumed): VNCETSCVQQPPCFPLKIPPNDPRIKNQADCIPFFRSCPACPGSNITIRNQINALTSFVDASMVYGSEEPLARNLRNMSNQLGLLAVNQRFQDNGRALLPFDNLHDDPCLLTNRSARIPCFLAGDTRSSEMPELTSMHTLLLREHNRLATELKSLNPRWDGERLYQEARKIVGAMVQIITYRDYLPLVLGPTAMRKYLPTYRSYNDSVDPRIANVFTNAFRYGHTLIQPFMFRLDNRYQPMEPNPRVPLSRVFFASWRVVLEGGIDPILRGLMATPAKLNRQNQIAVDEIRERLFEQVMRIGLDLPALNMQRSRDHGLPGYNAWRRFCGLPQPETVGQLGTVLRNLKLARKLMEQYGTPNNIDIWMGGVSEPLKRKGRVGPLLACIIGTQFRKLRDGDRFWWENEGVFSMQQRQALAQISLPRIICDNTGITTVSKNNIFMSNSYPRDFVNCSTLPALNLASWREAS
T2 sequence (P05164 165-273 limits assumed): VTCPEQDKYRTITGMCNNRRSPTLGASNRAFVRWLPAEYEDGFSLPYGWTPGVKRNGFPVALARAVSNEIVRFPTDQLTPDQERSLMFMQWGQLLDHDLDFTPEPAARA

Compound | binding of MPO-activated oligomers to plasma proteins compared to the substrate itself [1] | increased enhancement on the MPO side [2] [fold] | enhancement at 50 minutes after injection [3] | increase in the longitudinal relaxation rate [4, 5] [%] | increase in the transverse relaxation rate [4, 5] [%] | longitudinal relaxation rate ([4]; at 24 hours) [s⁻¹] | transverse relaxation rate ([4]; at 24 hours) [s⁻¹] | longitudinal relaxation rate ([4]; starting value) [s⁻¹] | transverse relaxation rate ([4]; starting value) [s⁻¹]
O=C([O-])CN(CCN(CC(=O)[O-])CC(=O)NCCc1c[nH]c2ccc(O)cc12)CCN(CC(=O)[O-])CC(=O)NCCc1c[nH]c2ccc(O)cc12.[Gd+3] [2Gd^3+] | over 3 fold | 1.3 | – | – | – | – | – | – | –
CC(C(=O)NCC(=O)NCCc1c[nH]c2ccc(O)cc12)N1CCN(CC(=O)[O-])CCN(CC(=O)[O-])CCN(CC(=O)[O-])CC1.[Gd+3] (stereo not drawn) [5-HT-DOTA(Gd), Glycylmethyl DOTA(Gd) 5-Hydroxytryptamide] | – | – | still significant enhancement | 30 | 20 | 6.9 | 10.6 | 5.3 | 8.8
